For one assay, the system named is NFS-60 cells. The assay can be described thus: NFS-60 cell assay (CCK proliferation, M-CSF stimulated). Format: cell-based. Particulars: Mus musculus, compound 0.5 uM, 72 h, 40 ng/mL M-CSF, read-out: inhibition ratio % (NFS-60 cell proliferation). As to the method: Example 54: NFS-60 Cell Assay
1. Experimental Materials
Mouse Myelogenous Leukemia Cells (NFS-60)
Using DMSO to dissolve, and the required concentration was prepared with full culture medium without factors.
Penicillin-streptomycin: TRANS
Mouse M-CSF/CSF-1 Protein: Sino Biological Inc, No. 51112-MNAH
M-CSF: Qilu Pharmaceutical co., Ltd.
The logarithmic growth phase of NFS-60 cells (1640+10% FBS+40 ng/ml M-CSF+1% Penicillin-streptomycin) were centrifuged (1000 r/min) and cultured in a factor-free medium at 37° C., 5% CO2 for 24 hours. Centrifugating (1000 r/min), the culture medium was replaced by new culture medium including 40 ng/mL factors, and inoculated on 96-well plate by 2*10^4 cells/mL, 100 μL/hole. After 16 hours, the tested compounds were added 10 μL/hole, 3 duplicate holes per compound, 37° C., 5% CO2, continue to cultured for 72 h. Then 10 μL CCK reagent was added to each hole. After incubation for 4 hours, the absorbance of each hole was measured at 450 nm wavelength. According to Formula: Inhibitory rate (%)=(1-OD value of test pore/OD value of solvent control pore)×100% 3. Experimental Results The experimental results of the inhibition of NFS-60 cell proliferation by the compounds prepared in Example 3-52, 0.5 uM, are shown in the following table: […]

The next assay deals with T1, CSF-1R (Homo sapiens, UniProt P07333).
T1 construct: purchased Invitrogen PV3249
T1 sequence (P07333 20-972): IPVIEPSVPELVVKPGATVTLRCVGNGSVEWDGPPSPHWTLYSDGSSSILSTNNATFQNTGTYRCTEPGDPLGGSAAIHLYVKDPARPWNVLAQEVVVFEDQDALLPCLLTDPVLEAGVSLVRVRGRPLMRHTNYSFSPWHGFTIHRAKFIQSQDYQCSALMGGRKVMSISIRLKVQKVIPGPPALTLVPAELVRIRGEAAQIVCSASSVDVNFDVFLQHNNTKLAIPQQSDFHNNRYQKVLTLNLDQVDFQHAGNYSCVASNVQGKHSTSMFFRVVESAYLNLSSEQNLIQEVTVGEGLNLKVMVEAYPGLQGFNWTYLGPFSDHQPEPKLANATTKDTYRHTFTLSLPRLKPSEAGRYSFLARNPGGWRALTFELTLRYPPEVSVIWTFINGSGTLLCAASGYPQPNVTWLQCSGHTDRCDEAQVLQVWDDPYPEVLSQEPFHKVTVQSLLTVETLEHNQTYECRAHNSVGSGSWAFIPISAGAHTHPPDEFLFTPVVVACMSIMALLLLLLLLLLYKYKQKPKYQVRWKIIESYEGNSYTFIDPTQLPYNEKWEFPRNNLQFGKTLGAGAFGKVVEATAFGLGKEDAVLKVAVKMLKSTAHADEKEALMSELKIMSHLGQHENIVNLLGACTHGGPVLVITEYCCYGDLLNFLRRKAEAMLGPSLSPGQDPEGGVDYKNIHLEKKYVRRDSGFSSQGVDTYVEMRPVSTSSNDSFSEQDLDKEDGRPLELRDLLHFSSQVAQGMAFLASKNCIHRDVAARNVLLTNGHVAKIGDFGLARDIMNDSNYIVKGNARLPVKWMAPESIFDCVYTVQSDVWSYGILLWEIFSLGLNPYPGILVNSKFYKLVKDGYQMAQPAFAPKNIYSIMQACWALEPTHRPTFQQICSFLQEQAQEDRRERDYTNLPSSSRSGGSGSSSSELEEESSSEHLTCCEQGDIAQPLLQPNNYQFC
The experiment in a line: CSF-1R kinase assay (HTRF kinEASE TK). Format: biochemical. As to conditions: ATP 2.5 uM, enzyme 0.012 ng/ul, read-out: In vitro inhibitory activity of CSF-1R IC50. As to the method:
Example 53: CSF-1R Kinase Assay
I. Materials and Instruments
• 2104 EnVision® Multilabel Reader (PerkinElmer) • OptiPlate-384, White Opaque 384-well MicroPlate (Cat.6007290, PerkinElmer) • HTRF kinEASE TK (Cat.62TKOPEC, Cisbio) • CSF-1R(Cat. PV3249, Invitrogen) • ATP 10 mM (Cat. PV3227, Invitrogen) • DTT 1 M (Cat. D5545, Sigma) • MgCl2 1 M (Cat. M8266, Sigma) • MnCl2 1 M (Cat.244589. Sigma)
II. Experimental Procedure
Substrate-TK and ATP were diluted to 5 times of the reaction concentration by 1×Kinase Buffer. CSF1R enzyme was diluted to 5×enzyme solution by 1×kinase buffer. Sa-XL665 was diluted to 4×Sa-XL665 solution by Detection Buffer. 100×TK-Ab-Cryptate Solution TK-Ab-Cryptate was diluted to 100×TK-Ab-Cryptate solution by Detection Buffer. 2. Experimental Procedure After all reagents had been prepared according to the above method, except enzymes, the sample was added after equilibrium to room temperature. • a. Firstly, 2.5% DMSO solution was prepared by using 1×kinase buffer (the high concentration of DMSO will affect the reaction and control the final concentration of DMSO to 1%). Then the compounds were diluted by 2.5% DMSO solution corresponding to the enzyme. The screening concentration of the compounds was 4 times gradient dilution from 1000 nM, and 8 concentrations. In addition to the control pore, 4 microlitres of diluted solution containing 2.5% DMSO were added to the reaction pore and 4 microlitres of previously prepared solution containing 2.5% DMSO were added to the control pore. • b. 2 microlitres of previously prepared TK-biotin substrate solution was added to all reaction pore (the amount of substrate used for enzyme screening is shown in Table 15). • c. Adding 2 microlitres of CSF1R enzyme solution of corresponding concentration (the amount of enzyme is shown in Table 15) to all reaction pore except negative pore. The negative pore is supplemented with 2 microlitres of enzyme corresponding to 1 xkinase buffer. After mixing, the compound and enzyme can be fully combined by incubating at room temperature for 10 minutes. • d. Enzyme reaction was initiated by adding 2 microlitres ATP solution of corresponding concentration to all reaction pore. The reaction time was 30 minutes (the corresponding ATP concentration and reaction time at enzyme screening were shown in Table 15). • e. Preparing the test solution 5 minutes before the end of kinase reaction. Streptavidin-XL665 and TK antibody europium cryptate (1:100) were prepared with detection buffer in the kit (the corresponding concentration of detection reagent for enzyme screening is shown in Table 15). • f. After the kinase reaction, 5 microlitres of diluted Streptavidin-XL665 were added to all reaction pore, mixing, and then the diluted TK antibody europium cryptate solution was added immediately. • g. After 1 hour reaction at room temperature, the fluorescence signals (320 nm stimulation, 665 nm, 615 nm emission) were detected by ENVISION (Perkinelmer) instrument. The inhibition rate of each pore was calculated by full active pore and background signal pore, and the average value of complex pore was obtained. Meanwhile, the half inhibitory activity (IC50) of each compound was fitted by professional drawing analysis software PRISM 5.0. The Flow Chart of the Experiment is as Follows:
3. Data Analysis Emission Ratio (ER)=665 nm Emission signal/615 nm Emission signal Inhibitory rate=(ERpositive−ERsample)/(ERpositive−ERnegative)*100% Using Graphpad Prism 5 and log (inhibitor) vs. normalized response to fit IC50 curve and calculate IC50 value. The IC50 data of the compounds prepared in Representative Examples 3-52 are as follows (Table 18): […]
On the technique in general: In TR-FRET formats the signal depends on donor and acceptor labels being close together.

In assay [1] the test system is MC-38 transplanted tumors. The experiment in a line: Animal pharmacodynamics experiment: MC-38 transplanted tumors in C57 mice. Type of assay: in vivo. Particulars: 2 weeks; for inhibition in vivo at 30 mg/kg: Mus musculus, MC-38, po, 336 h, compound alone, 30 mg/kg intragastrically daily, read-out: inhibition ratio (tumor size, MC-38 transplanted tumors); for inhibition ratio (tumor size, MC-38 transplanted tumors): compound 30 mg/kg intragastrically daily + anti-PD1 10 mg/kg i.p. once every 3 days. As to the method: Example 55: Animal Pharmacodynamics Experiment
In this study. MC-38 cell lines were inoculated in C57 mice
Experimental animal: C57 mice, male, 5-6 weeks old (18-22 g)
Inoculation: 2×10^6/0.1 mL, Matrigel is added in 3:1 ratio
PD1: InVivoMAb anti-mouse PD-1 (CD279). BioXCell
Group: On day 4 after inoculating, all the mice were divided into 13 groups, respectively model group, the anti-PD1 2 mg/kg group, anti-PD110 mg/kg group, testing compounds alone, and the tested compound combine with anti-PD1 10 mg/kg. Compounds were intragastrically administered daily at a dose of 30 mg/kg and anti-PD1 was intraperitoneally injected once every 3 days. The drug was administered continuously for 2 weeks. In model group, 80% glycerol+20% CMC-Na was given daily.
Results: The experimental results of anti-PD1 combined with the compounds prepared in the representative example 3-52 on the inhibition of tumor size of MC-38 transplanted tumors are as follows: […]

As a reminder, the IC50 is the concentration needed to halve the response being measured.

With `Cc1cccc(C(=O)Nc2cccc([C@@H](C)Oc3cc(Cl)cnc3N)c2)c1` [Compound 72, (R)-N-(3-(1-((2-amino-5-chloropyridin-3-yl)oxy)ethyl)-phenyl)-3-methylbenzamide], the inhibition at 0.5 µM in the assay with NFS-60 cells is not below 50%. Further, the IC50 at CSF-1R is not above 50 nM. In assay [1], the inhibition in vivo at 30 mg/kg was less than 10% and the “inhibition ratio (tumor size, MC-38 transplanted tumors)” value (from here on “inhibition ratio”) is “++ (++: 10%-30%)”.

`CSc1cc(C(=O)Nc2cccc([C@@H](C)Oc3cc(-c4cnn(C)c4)cnc3N)c2)ccc1C` [Compound 182, (R)-N-(3-(1-((2-amino-5-(1-methyl-1H-pyrazol-4-yl)pyridin-3-yl)oxy)ethyl)phenyl)-4-methyl-3-(methylthio)benzamide]: the inhibition at 0.5 µM with NFS-60 cells was not below 50%. In addition, at CSF-1R, the IC50 is not above 50 nM. In assay [1], the inhibition in vivo at 30 mg/kg fell in the range of 10 to 30% and the “inhibition ratio” value was “+++ (+++: ≥30%)”.

For `C[C@@H](Oc1cc(Cl)cnc1N)c1cccc(NC(=O)c2cccc(S(C)(=O)=O)c2)c1` [Compound 78, (R)-N-(3-(1-((2-amino-5-chloropyridin-3-yl)oxy)ethyl)-phenyl)-3-(methylsulfonyl)-benzamide], the IC50 at CSF-1R is not above 50 nM. Besides, in assay [1], the inhibition in vivo at 30 mg/kg is less than 10% and the “inhibition ratio” value is on record as “++ (++: 10%-30%)”.

As to `Cc1cccc(C(=O)Nc2cccc([C@@H](C)Oc3cc(Cl)cnc3N)c2)c1Cl` [Compound 85, (R)-N-(3-(1-((2-amino-5-chloropyridin-3-yl)oxy)ethyl)-phenyl)-2-chloro-3-methylbenzamide], the IC50 on CSF-1R was not above 50 nM. For the same molecule, in assay [1], the inhibition in vivo at 30 mg/kg was less than 10% and the “inhibition ratio” value is reported as “+++ (+++: ≥30%)”.

Regarding `C[C@@H](Oc1cc(-c2cnn(C)c2)cnc1N)c1cccc(NC(=O)c2cccc(N(C)C)c2)c1` [Compound 178, (R)-N-(3-(1-((2-amino-5-(1-methyl-1H-pyrazol-4-yl)pyridin-3-yl)oxy)ethyl)phenyl)-3-(dimethylamino)benzamide], the inhibition at 0.5 µM with NFS-60 cells is not below 50%. Further, the IC50 on CSF-1R was not above 50 nM. Further, in assay [1], the inhibition in vivo at 30 mg/kg lay within 10 to 30% and the “inhibition ratio” value is on record as “+++ (+++: ≥30%)”.

For the molecule `C[C@@H](Oc1cc(Cl)cnc1N)c1cccc(NC(=O)c2cccc(C3CC3)c2)c1` [Compound 86, (R)-N-(3-(1-((2-amino-5-chloropyridin-3-yl)oxy)ethyl)-phenyl)-3-cyclopropylbenzamide], at CSF-1R, the IC50 was not above 50 nM. In assay [1], the inhibition in vivo at 30 mg/kg is less than 10% and the “inhibition ratio” value was “+++ (+++: ≥30%)”.

As to `Cc1cncc(C(=O)Nc2cccc([C@@H](C)Oc3cc(Cl)cnc3N)c2)c1` [Compound 83, (R)-N-(3-(1-((2-amino-5-chloropyridin-3-yl)oxy)ethyl)-phenyl)-5-methylnicotinamide], the IC50 on CSF-1R was not above 50 nM. Further, in assay [1], the inhibition in vivo at 30 mg/kg was less than 10% and the “inhibition ratio” value is given as “+++ (+++: ≥30%)”.

As to `Cc1ccc(C(=O)Nc2cccc([C@@H](C)Oc3cc(-c4cnn(C)c4)cnc3N)c2)cc1N(C)C` [Compound 179, (R)-N-(3-(1-((2-amino-5-(1-methyl-1H-pyrazol-4-yl)pyridin-3-yl)oxy)ethyl)phenyl)-3-(dimethylamino)-4-methylbenzamide], in the assay with NFS-60 cells, the inhibition at 0.5 µM was not below 50%. Moreover, the IC50 at CSF-1R is not above 50 nM. Also, in assay [1], the inhibition in vivo at 30 mg/kg fell in the range of 10 to 30% and the “inhibition ratio” value is on record as “+++ (+++: ≥30%)”.

For the origin of these results see patent publication US11767296B2, “Heteroaryl compounds as kinase inhibitor” (FUJIAN HAIXI PHARMACEUTICALS CO., LTD, priority 2018, dated 2023).
